“Also recorded” adds a separate entry of the source.
Key:
Calu-1 = conditions: cited from earlier work
293-PLD2 = conditions: cited from earlier work
[1] = tested on: N2a cells expressing swAPP; test: Aβ secretion by N2a cells expressing swAPP (ELISA); assay type: cell-based
Description: N2a cells expressing swAPP after reaching confluence, were replaced with new media and treated either with vehicle (black) or FIPI (gray) for 6 hours. The media was collected and both Aβ40 (A) and Aβ42 (B) were measured by ELISA. n=6.

primary cortical neurons = test: Rescue of oAβ42-induced decrease in PIP2 levels in primary cortical neuronal cultures; assay type: cell-based, mice; conditions: 750 nM FIPI pretreatment for 1 hour, then 200 nM oAβ42 for 2 hours; n=3
PLD1 = molecular target: T1, PLD1 (Homo sapiens, UniProt Q13393); conditions: PLD1 versus PLD2; cited from earlier work
T1 sequence (Q13393 1-1074): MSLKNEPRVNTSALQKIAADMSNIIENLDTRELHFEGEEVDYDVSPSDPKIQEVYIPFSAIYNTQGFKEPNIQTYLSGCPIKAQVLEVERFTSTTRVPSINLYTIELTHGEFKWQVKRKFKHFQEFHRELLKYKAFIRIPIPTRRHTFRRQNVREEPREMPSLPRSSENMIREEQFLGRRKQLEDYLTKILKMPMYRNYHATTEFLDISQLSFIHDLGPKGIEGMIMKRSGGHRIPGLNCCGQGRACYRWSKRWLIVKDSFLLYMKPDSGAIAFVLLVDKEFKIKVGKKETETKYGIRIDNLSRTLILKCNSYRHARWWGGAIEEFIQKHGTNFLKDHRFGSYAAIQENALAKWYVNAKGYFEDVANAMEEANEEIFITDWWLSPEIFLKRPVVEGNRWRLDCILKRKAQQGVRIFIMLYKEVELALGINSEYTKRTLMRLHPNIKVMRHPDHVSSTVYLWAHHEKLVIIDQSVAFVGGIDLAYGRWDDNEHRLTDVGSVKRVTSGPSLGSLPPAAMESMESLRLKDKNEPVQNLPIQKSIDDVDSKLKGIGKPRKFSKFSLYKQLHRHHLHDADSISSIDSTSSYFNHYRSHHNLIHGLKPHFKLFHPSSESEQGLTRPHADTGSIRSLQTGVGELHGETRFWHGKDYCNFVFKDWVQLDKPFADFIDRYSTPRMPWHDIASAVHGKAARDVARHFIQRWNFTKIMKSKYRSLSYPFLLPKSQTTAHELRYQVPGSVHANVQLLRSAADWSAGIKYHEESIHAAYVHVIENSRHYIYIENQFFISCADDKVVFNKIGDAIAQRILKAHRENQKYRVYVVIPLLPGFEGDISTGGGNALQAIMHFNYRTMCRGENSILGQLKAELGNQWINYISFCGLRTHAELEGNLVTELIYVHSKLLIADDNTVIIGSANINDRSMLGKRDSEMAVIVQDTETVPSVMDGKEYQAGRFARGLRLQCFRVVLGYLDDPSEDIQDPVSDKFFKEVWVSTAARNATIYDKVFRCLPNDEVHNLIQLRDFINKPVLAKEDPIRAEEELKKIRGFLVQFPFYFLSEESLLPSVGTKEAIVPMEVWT

## O=C(NCCN1CCC2(CC1)C(=O)NCN2c1ccccc1)c1cnc2ccccc2c1 [compound 9b, N-(2-(4-oxo-1-phenyl-1,3,8-triazaspiro[4,5]decan-8-yl)ethyl)quinoline-3-carboxamide]
Calu-1
  IC50: 1900 nM
293-PLD2
  IC50: 90 nM

## O=C(NCCN1CCC(n2c(=O)[nH]c3ccccc32)CC1)c1cc2cc(F)ccc2[nH]1 [FIPI, 5-Fluoro-2-indolyl des-chlorohalopemide]
[1]; N2A cells expressing swAPP treated with FIPI, 6 hours, ELISA of media
  secreted Aβ42: secrete lower amounts of Aβ42
[1]; N2a swAPP cells, FIPI versus vehicle for 6 hours, ELISA, n=6
  production of Aβ (Aβ40 and Aβ42): decrease production of Aβ
Primary cortical neurons
  PIP2 levels after oAβ42: partially rescues oAβ42 induced decrease in PIP2 levels; also recorded: partially rescue PIP2 deficiency
PLD1
  PLD isoform selectivity: blocks both PLD1 and PLD2

## C[C@@H](CN1CCC(n2c(=O)[nH]c3cc(Br)ccc32)CC1)NC(=O)[C@@H]1C[C@H]1c1ccccc1 [compound 13r, (1R,2R)—N—((S)-1-(4-(5-bromo-2-oxo-2,3-dihydro-1H-benzo[d]imidazol-1-yl)piperidin-1-yl)propan-2-yl)-2-phenylcyclopropanecarboxamide]
Calu-1
  IC50: 3.7 nM
